# Results: patent publication US10604535B2, “Compounds, compositions and methods” (Denali Therapeutics Inc., priority 2016, dated 2020)
# Test system: FADD-deficient Jurkat cells
# Experiment: Cellular necroptosis assay (human TNFα-induced necrosis, CellTiter-Glo)
# Format: cell-based
# Conditions: Homo sapiens, Jurkat, 48 h, TNFα 10 ng/mL, read-out: Cell IC50
row,Structure (SMILES),IC50 [nM]
1,"CN1C(=O)[C@@H](NC(=O)c2cnc(C3(c4ccccc4)CC3)[nH]2)COc2ccccc21 [Example 88, (S)—N-(5-methyl-4-oxo-2,3,4,5-tetrahydrobenzo[b][1,4]oxazepin-3-yl)-2-(1-phenylcyclopropyl)-1H-imidazole-5-carboxamide]",1000 to 10000
2,"CN1C(=O)[C@@H](NC(=O)c2nc3cccc(-c4ccccc4F)c3s2)COc2ccccc21 [Example 79, (S)-7-(2-fluorophenyl)-N-(5-methyl-4-oxo-2,3,4,5-tetrahydrobenzo[b][1,4]oxazepin-3-yl)benzo[d]thiazole-2-carboxamide]",0.1 to 1000
3,"O=C(N[C@H]1COc2cccnc2NC1=O)c1cc(C2(c3ccccc3)CC2)on1 [Example 62, (S)—N-(4-oxo-2,3,4,5-tetrahydropyrido[3,2-b][1,4]oxazepin-3-yl)-5-(1-phenylcyclopropyl)isoxazole-3-carboxamide]",0.1 to 1000
4,"CN1C(=O)[C@@H](NC(=O)c2nnc(Cc3ccccc3)[nH]2)C[C@@H](F)c2ccccc21 (mixture of isomers) [Example 11, 5-benzyl-N-((3S,5R)-5-fluoro-1-methyl-2-oxo-2,3,4,5-tetrahydro-1H-benzo[b]azepin-3-yl)-4H-1,2,4-triazole-3-carboxamide and 5-benzyl-N-((3R,5S)-5-fluoro-1-methyl-2-oxo-2,3,4,5-tetrahydro-1H-benzo[b]azepin-3-yl)-4H-1,2,4-triazole-3-carboxamide]",0.1 to 1000
5,"O=C(N[C@@H]1C(=O)Nc2c(F)cc(F)cc2[C@@H]2C[C@H]12)c1nnc(Cc2ccccc2)o1 [Example 89B, 5-benzyl-N-((1aS,2S,8bR)-5,7-difluoro-3-oxo-1,1a,2,3,4,8b-hexahydrobenzo[b]cyclopropa[d]azepin-2-yl)-1,3,4-oxadiazole-2-carboxamide]",0.1 to 1000
6,"C[C@H]1Oc2cccnc2N(C)C(=O)[C@H]1NC(=O)c1nnc(C(F)(F)c2ccccc2)o1 [Example 221, 5-(difluoro(phenyl)methyl)-N-((2R,3S)-2,5-dimethyl-4-oxo-2,3,4,5-tetrahydropyrido[3,2-b][1,4]oxazepin-3-yl)-1,3,4-oxadiazole-2-carboxamide]",0.1 to 1000
7,"C[C@H]1Oc2cccnc2N(C)C(=O)[C@H]1NC(=O)c1nnc(Cc2ccccc2)s1 [Example 217, 5-benzyl-N-((2R,3S)-2,5-dimethyl-4-oxo-2,3,4,5-tetrahydropyrido[3,2-b][1,4]oxazepin-3-yl)-1,3,4-thiadiazole-2-carboxamide]",0.1 to 1000
8,"CN1C(=O)[C@@H](NC(=O)c2nn(Cc3ccc(Cl)cn3)cc2F)COc2ccccc21 [Example 216, (S)-1-((5-chloropyridin-2-yl)methyl)-4-fluoro-N-(5-methyl-4-oxo-2,3,4,5-tetrahydrobenzo[b][1,4]oxazepin-3-yl)-1H-pyrazole-3-carboxamide]",0.1 to 1000
9,"CN1C(=O)[C@@H](NC(=O)c2nn(Cc3ccccc3)cc2F)COc2cccnc21 [Example 76, (S)-1-benzyl-4-fluoro-N-(5-methyl-4-oxo-2,3,4,5-tetrahydropyrido[3,2-b][1,4]oxazepin-3-yl)-1H-pyrazole-3-carboxamide]",0.1 to 1000
10,"CN1C(=O)C(NC(=O)c2cc(Cc3ccccc3)on2)[C@@H]2C[C@@H]2c2ccccc21 (stereo in doubt) [Example 7B, 5-benzyl-N-((2S)-4-methyl-3-oxo-1,1a,2,3,4,8b-hexahydrobenzo[b]cyclopropa[d]azepin-2-yl)isoxazole-3-carboxamide]",1000 to 10000
11,"O=C(N[C@H]1CCc2ccccc2-n2cnnc21)c1nnc(Cc2ccccc2)[nH]1 [Example 69A, (S)-5-benzyl-N-(5,6-dihydro-4H-benzo[f][1,2,4]triazolo[4,3-a]azepin-4-yl)-4H-1,2,4-triazole-3-carboxamide]",0.1 to 1000
12,"CN1C(=O)[C@@H](NC(=O)c2cc(Cc3ccccc3)on2)CCc2sc(Cl)cc21 (stereo in doubt) [Example 1A, 5-Benzyl-N-(2-chloro-4-methyl-5-oxo-4H,5H,6H,7H,8H-thieno[3,2-b]azepin-6-yl)-1,2-oxazole-3-carboxamide]",0.1 to 1000
13,"CN1C(=O)[C@@H](NC(=O)c2cc(Cc3ccccc3)on2)[C@H]2C[C@H]2c2ccccc21 [Example 7A, 5-benzyl-N-((2S)-4-methyl-3-oxo-1,1a,2,3,4,8b-hexahydrobenzo[b]cyclopropa[d]azepin-2-yl)isoxazole-3-carboxamide]",0.1 to 1000
14,"CN1C(=O)[C@@H](NC(=O)c2cc(Cc3ccccc3)[nH]n2)CC2(CC2)c2ccccc21 [Example 59, 5-benzyl-N-[(3S)-1-methyl-2-oxo-1,2,3,4-tetrahydrospiro[1-benzazepine-5,1-cyclopropane]-3-yl]-1H-pyrazole-3-carboxamide]",0.1 to 1000
15,"CN1C(=O)[C@@H](NC(=O)c2nnc(Cc3ccccc3)[nH]2)C[C@H](F)c2ccccc21 (mixture of isomers) [Example 12, 5-benzyl-N-((3S,5S)-5-fluoro-1-methyl-2-oxo-2,3,4,5-tetrahydro-1H-benzo[b]azepin-3-yl)-4H-1,2,4-triazole-3-carboxamide and 5-benzyl-N-((3R,5R)-5-fluoro-1-methyl-2-oxo-2,3,4,5-tetrahydro-1H-benzo[b]azepin-3-yl)-4H-1,2,4-triazole-3-carboxamide]",0.1 to 1000
16,"CN1C(=O)[C@@H](NC(=O)c2nn(Cc3ccccc3)cc2F)[C@H]2C[C@H]2c2cccnc21 [Example 82A, 1-benzyl-4-fluoro-N-((1aS,2S,8bR)-4-methyl-3-oxo-1,1a,2,3,4,8b-hexahydrocyclopropa[d]pyrido[2,3-b]azepin-2-yl)-1H-pyrazole-3-carboxamide]",0.1 to 1000
17,"[2H]C([2H])([2H])N1C(=O)[C@@H](NC(=O)c2nn(Cc3ccccc3)cc2F)COc2cccnc21 [Example 175, (S)-1-benzyl-4-fluoro-N-(5-trideuteriomethyl-4-oxo-2,3,4,5-tetrahydropyrido[3,2-b][1,4]oxazepin-3-yl)-1H-pyrazole-3-carboxamide]",0.1 to 1000
18,"O=C(N[C@H]1CCc2ccccc2-n2cnnc21)c1cc(Cc2ccccc2)on1 [Example 71A, (S)-5-benzyl-N-(5,6-dihydro-4H-benzo[f][11,2,4]triazolo[4,3-a]azepin-4-yl)isoxazole-3-carboxamide]",0.1 to 1000
19,"CN1C(=O)[C@@H](NC(=O)c2nnc(Cc3ccccc3)s2)COc2cccnc21 [Example 85, (S)-5-benzyl-N-(5-methyl-4-oxo-2,3,4,5-tetrahydropyrido[3,2-b][1,4]oxazepin-3-yl)-1,3,4-thiadiazole-2-carboxamide]",0.1 to 1000
20,"CN1C(=O)[C@@H](NC(=O)c2cc(Cc3ccccc3)[nH]n2)[C@H]2C[C@H]2c2ccccc21 [Example 60A, 5-benzyl-N-((1aS,2S,8bR)-4-methyl-3-oxo-1,1a,2,3,4,8b-hexahydrobenzo[b]cyclopropa[d]azepin-2-yl)-1H-pyrazole-3-carboxamide]",0.1 to 1000
21,"CN1C(=O)[C@@H](NC(=O)c2nnc(Cc3ccccc3)[nH]2)[C@H]2C[C@H]2c2cc(C#N)cnc21 [Example 218, 5-benzyl-N-((1aS,2S,8bR)-7-cyano-4-methyl-3-oxo-1,1a,2,3,4,8b-hexahydrocyclopropa[d]pyrido[2,3-b]azepin-2-yl)-4H-1,2,4-triazole-3-carboxamide]",0.1 to 1000
22,"C[C@H]1Oc2cccnc2N(C)C(=O)[C@H]1NC(=O)c1noc(Cc2ccccc2)n1 [Example 222, 5-benzyl-N-((2R,3S)-2,5-dimethyl-4-oxo-2,3,4,5-tetrahydropyrido[3,2-b][1,4]oxazepin-3-yl)-1,2,4-oxadiazole-3-carboxamide]",0.1 to 1000
23,"CN1C(=O)[C@@H](NC(=O)c2nnc(Cc3ccccc3)o2)CCc2ccccc21 [Example 225, (S)-5-benzyl-N-(1-methyl-2-oxo-2,3,4,5-tetrahydro-1H-benzo[b]azepin-3-yl)-1,3,4-oxadiazole-2-carboxamide]",0.1 to 1000
24,"CN1C(=O)[C@@H](NC(=O)c2ncc(Cc3ccccc3)s2)COc2cccnc21 [Example 86, (S)-5-benzyl-N-(5-methyl-4-oxo-2,3,4,5-tetrahydropyrido[3,2-b][1,4]oxazepin-3-yl)thiazole-2-carboxamide]",0.1 to 1000
25,"CN1C(=O)[C@@H](NC(=O)c2ncc(Cc3ccccc3)s2)COc2ccccc21 [Example 5, (S)-5-benzyl-N-(5-methyl-4-oxo-2,3,4,5-tetrahydrobenzo[b][1,4]oxazepin-3-yl)thiazole-2-carboxamide]",0.1 to 1000
26,"CN1C(=O)[C@@H](NC(=O)c2cc(C3(c4ccccc4)CC3)[nH]n2)COc2ccccc21 [Example 72, (S)—N-(5-methyl-4-oxo-2,3,4,5-tetrahydrobenzo[b][1,4]oxazepin-3-yl)-5-(1-phenylcyclopropyl)-1H-pyrazole-3-carboxamide]",0.1 to 1000

# Same assay, conditions: Homo sapiens, Jurkat, 48 h, read-out: Cell IC50, TNFα 10 ng/mL, 48 h
row,Structure (SMILES),IC50 [nM]
1,"O=C(N[C@H]1CCc2ccccc2-n2ccnc21)c1nnc(Cc2ccccc2)[nH]1 [Example 52, (S)-5-benzyl-N-(5,6-dihydro-4H-benzo[f]imidazo[1,2-a]azepin-4-yl)-4H-1,2,4-triazole-3-carboxamide]",0.1 to 1000

# Same assay, conditions: TNFα 10 ng/mL, 48 h; read-out: Cell IC50
row,Structure (SMILES),IC50 [nM]
1,"CN1C(=O)[C@@H](NC(=O)c2nnc(Cc3ccccc3)[nH]2)C[C@H](F)c2ccccc21 (mixture of isomers) [Example 12A, 5-benzyl-N-((3S,5S)-5-fluoro-1-methyl-2-oxo-2,3,4,5-tetrahydro-1H-benzo[b]azepin-3-yl)-4H-1,2,4-triazole-3-carboxamide and 5-benzyl-N-((3R,5R)-5-fluoro-1-methyl-2-oxo-2,3,4,5-tetrahydro-1H-benzo[b]azepin-3-yl)-4H-1,2,4-triazole-3-carboxamide]",0.1 to 1000
2,"CN1C(=O)[C@@H](NC(=O)c2nnc(Cc3ccccc3)[nH]2)C[C@@H](F)c2ccccc21 (mixture of isomers) [Example 11A, 5-benzyl-N-((3S,5R)-5-fluoro-1-methyl-2-oxo-2,3,4,5-tetrahydro-1H-benzo[b]azepin-3-yl)-4H-1,2,4-triazole-3-carboxamide and 5-benzyl-N-((3R,5S)-5-fluoro-1-methyl-2-oxo-2,3,4,5-tetrahydro-1H-benzo[b]azepin-3-yl)-4H-1,2,4-triazole-3-carboxamide]",0.1 to 1000
